Measurements from the SangsterLogP compilation.

Experiment: method code SF-RC, from DOI: 10.1021/acs.jmedchem.5b00440, PMID: 26327138
Settings: pH 7.4

Row | SMILES | logD
1 | CN(C)c1ccc(/C=C/c2nc3ccc(I)cc3[nH]2)cn1 | 3.11
2 | Ic1ccc2cc(/C=C/c3ccccc3)sc2c1 | 2.34
3 | CN(C)c1ccc(C=Cc2cc3ccc(I)cc3s2)cc1 | 2.4
4 | Ic1ccc2nc(/C=C/c3ccccc3)[nH]c2c1 | 3.25
5 | CN(C)c1ccc(/C=C/c2cc3ccc(I)cc3s2)cn1 | 2.85
6 | CN(C)c1ccc(/C=C/c2nc3ccc(I)cc3s2)cc1 | 3.15
7 | CN(C)c1ccc(/C=C/c2nc3ccc(I)cc3s2)cn1 | 3.25

Other lines, results leading:

Row | logD | SMILES
8 | 3.13 | Ic1ccc2cc(/C=C/c3cccnc3)oc2c1
9 | 3.15 | Ic1ccc2nc(/C=C/c3cccnc3)[nH]c2c1
10 | 2.38 | Ic1ccc2cc(/C=C/c3ccccc3)oc2c1
11 | 2.11 | CN(C)c1ccc(/C=C/c2cc3ccc(I)cc3o2)cc1
12 | 3.35 | Ic1ccc2nc(/C=C/c3cccnc3)oc2c1
13 | 3.95 | Ic1ccc2nc(/C=C/c3ccccc3)oc2c1
14 | 2.95 | Ic1ccc2cc(/C=C/c3cccnc3)sc2c1
